According to PubChem BioAssay (NCI):
Where “and” joins values, the source holds several entries; their conditions need not be identical. Equal entries are not always repeated.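 1) Cells in 96-well plates. 2) Compound, 48 h, 5 concentrations. 3) Linear interpolation between surrounding doses. 4) Unreached endpoint = highest concentration. At the GI50, growth is halved. Definition used: TGI = concentration required for complete inhibition of growth.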 Starred links: 1 amine or outer side, 2 acyl side, 3 side chain; linkers in the order of their positions; H or OH if unused. Non-standard residues stand in square brackets, D forms with d. Residues, ends and D or L forms follow the SMILES beside them. *: point of attachment. X14 = C/C=C/CC(C)C(O)[C@H](N[*:1])C(=O)[*:2]; Decanoyl = CCCCCCCCCC(=O)*; Leu(ol) = CC(C)C[C@H](N)CO; Iva = CC[C@](C)(N)C(=O)O; Aib = CC(C)(N)C(=O)O

System: MDA-MB-468 breast
Test: NCI tumour cell line growth inhibition, 48 h

| Compound | GI50 | TGI [nM] |
| --- | --- | --- |
| O=C1/C(=C\c2ccccc2)CN(C(=O)c2ccccc2)C/C1=C\c1ccccc1 | 1690 nM | 3560 |
| CCCOc1ccc(/C=N/Nc2cc(C)nc3ccc(Cl)cc23)cc1 | 1690 nM | 3190 |
| FC(F)(F)c1ccc(-c2ncc(-c3ccc(C(F)(F)F)cc3)c(NCc3cc(C(F)(F)F)cc(C(F)(F)F)c3)n2)cc1 | 3200 nM | 15500 |
| O=C1c2cccnc2C(=O)c2c1c(C(=O)OCCc1ccccn1)c1ccccn21 | 1840 nM | 5060 |
| CCC(C)CC(C)C(=O)c1c(O)ccn(O)c1=O (centres undefined) | 2100 nM | 9470 |
| O=Cc1ccc(-c2ccc(-c3ccc(C=O)o3)[se]2)o1 | 22600 nM | > 100000 |
| Brc1ccc(Nc2nc3ccccc3nc2Nc2ccc(Br)cc2)cc1 | 365 nM | 2580 |
| COc1cc2c(cc1OCCCCn1c(-c3cccs3)nc3ccccc31)N=C[C@@H]1CCCN1C2=O | 333 nM | 1600 |
| COc1cc(/C=C/C(=O)c2c(C)nc3ccccc3c2C)ccc1OCCCCOc1cc2c(cc1OC)C(=O)N1CCC[C@H]1C=N2 | 235 nM | 625 |
| CN1CCN(c2ccc(Nc3nc(NCCNS(=O)(=O)c4ccc5ccccc5c4)c4sccc4n3)cc2)CC1 | 2830 nM | 12200 |
| NCCCNc1nc2ccc(Cl)cc2c2c(=O)c3cc(F)ccc3sc12 | 2900 nM | 10100 |
| COc1ncc(-c2ccc3nccc(C#CCN4CCN(S(C)(=O)=O)CC4)c3c2)cc1NS(=O)(=O)c1ccc(F)cc1F | 19.8 nM | 122 |
| CCN1C(=O)N(CC)C2C1NC(=S)N2/N=C/C=C/c1ccccc1OC (centres undefined) | 35.3 nM | 38900 |
| O=C(O)c1ccc(C(=O)O)c(C(=O)O)c1.[NH-]C1CCCCC1[NH-].[Pt+2] | 35700 nM | > 100000 |
| O=C(/C=C/c1cccc(S(=O)(=O)Nc2ccccc2)c1)NO | 241 nM | 5360 |
| NC(=O)CCc1ccccc1Oc1nccc(-c2c(-c3ccc(F)cc3)ncn2C2CCNCC2)n1 | 10000 nM | > 25000 |
| CCOC(=O)[C@@H](C)C[C@H](Cc1ccccc1)NC(=O)c1csc([C@@H](C[C@H](C(C)C)N(C)C(=O)[C@@H](NC(=O)[C@H]2C[C@H](O)CCN2C)C(C)C)OC(C)=O)n1 | < 1.67 nM | > 16700 |
| NC(=N\N=C/c1ccc(Cl)cc1Cl)/C(N)=N\N=C/c1ccc(Cl)cc1Cl | 6870 nM | > 100000 |
| CN(CSc1ccc(Cl)cc1)c1ccc(CSc2ccc(Cl)cc2)cc1 | 1850 nM | 5070 |

| Compound | GI50 | TGI [nM] |
| --- | --- | --- |
| COC(=O)[C@@H](C)C[C@H](Cc1ccccc1)NC(=O)c1csc([C@@H](C[C@H](C(C)C)N(C)C(=O)C2(NC(=O)[C@H]3CCCCN3C)CCC2)OC(C)=O)n1 | 1.23 nM and 2.5 nM | > 25000 |
| FC(F)(F)c1cc(-c2ncn(/C=C\c3nnco3)n2)cc(C(F)(F)F)c1 | 85.4 nM | 740 |
| N#C/C(=C\c1ccc(F)cc1)n1nc2cccc(F)c2n1 | 3050 nM | > 100000 |
| O=C(Nc1ccc(I)cc1)c1cccc([N+](=O)[O-])c1O | 2070 nM | 7400 |
| C/C=C/CC(C)C(O)[C@H](NC(=O)[C@@H]1CCCN1C(=O)C(C)(C)NC(=O)CCCCCCCCC)C(=O)N[C@@](C)(CC)C(=O)N[C@@H](CCC(N)=O)C(=O)N[C@H](CCC(N)=O)C(=O)NC(C)(C)C(=O)N[C@@](C)(CC)C(=O)N[C@@H](CCC(N)=O)C(=O)N[C@H](CC(C)C)C(=O)N[C@H](CO)CC(C)C (stereo partly drawn) (Decanoyl-[Aib]P[X14][Iva]Q[dQ][Aib][Iva]Q[dL][Leu(ol)]) | 32.9 nM | 260 |
| COc1ccc(C2CC(c3ccc4ccccc4c3)=NN2c2nc(O)c(C3=c4cc(OC)ccc4=NC3=O)s2)cc1 (centres undefined) | 46.2 nM | 200 |
| CCCCN(CC)CCCCCCCCCCN1CCCc2cc(OC)ccc21 | 1590 nM | 3580 |
| O=C1NC(=O)C(c2ccccc2)=C1Nc1ccccc1 | > 25000 nM | > 25000 |
| Cc1[nH]c(C(=O)Nc2ccc(S(=O)(=O)N3CCCCC3)cc2OCCOCCOCCOCCOCCOCCOCCOCCOCCOc2cc(S(=O)(=O)N3CCCCC3)ccc2NC(=O)c2[nH]c(C)c3c2CCCCC3=O)c2c1C(=O)CCCC2 | 191 nM | 794 |
| CCCCCCc1cc2cc(-c3csc(/C=C/c4ccccc4)n3)c(=O)oc2cc1O | 6100 nM | 28700 |
| CC(C)OCc1cc(CN2CCN(c3cccc(Cl)c3)CC2)c(O)c2ncccc12 | 346 nM | 1670 |
| c1ccc(-c2cn(-c3ccccc3)c(-c3ccccc3)n2)cc1 | 10100 nM | 30500 |
| Cc1cc(C(O)(c2ccc(Nc3ccccc3)cc2)c2ccc(Nc3ccc(S(=O)(=O)O)cc3)cc2)ccc1N (centres undefined) | 480 nM | 2480 |
| O=C(Cc1ccc(Nc2ccnc(C(F)(F)F)c2)cc1)N/N=C/c1ccccc1O | 3000 nM | 39300 |
| O=C(NS(=O)(=O)c1ccc(NC[C@H]2COCCO2)c([N+](=O)[O-])c1)c1ccc(N2CCN(CC3=C(c4ccc(Cl)cc4)CC4(CCC4)CC3)CC2)cc1Oc1cnc2[nH]ccc2c1 | 1790 nM | 4350 |
| O=c1[nH]c(F)nc2c1ncn2C1OC(CO)C(O)C1O (centres undefined) | > 100000 nM | > 100000 |
| Oc1ccc(Cc2ccc(O)c(C3CC(c4ccc(Cl)cc4)=NN3)c2)cc1C1CC(c2ccc(Cl)cc2)=NN1 (centres undefined) | 2850 nM | 9440 |
| CCC(C)(C)[C@H](NC(=O)[C@H]1CCCCN1C)C(=O)N(C)[C@H](C[C@@H](OC(C)=O)c1nc(C(=O)N[C@@H](Cc2ccccc2)C[C@H](C)C(=O)O)cs1)C(C)C | < 1.67 nM | < 1.67 |
